Calls of active or inactive are those of the source. No rule for the calls is given here.
Molecular target: Serine/threonine-protein kinase mTOR (Homo sapiens) (UniProt P42345)
Test: binders of mTOR FRB domain, biophysical, NMR (AID 1648)
Conditions: NMR binding to FRB domain, chemical shift

Serine/threonine-protein kinase mTOR (Homo sapiens), sequence (P42345 2015-2114): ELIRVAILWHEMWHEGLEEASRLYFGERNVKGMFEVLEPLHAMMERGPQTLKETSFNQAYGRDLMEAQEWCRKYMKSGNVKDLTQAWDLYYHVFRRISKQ

Row | Compound | Kd
1 | COC(=O)Cc1cccc(OC)c1 | > 4 mM (inactive)
2 | O=C(O)c1cc(=O)c2cccc(O)c2[nH]1 | > 4 mM (inactive)
3 | Cn1nnc2cc(C(=O)Nc3cccnc3)ccc21 | > 4 mM (inactive)
4 | COC(=O)Nc1c(C)n(C)n(-c2ccccc2)c1=O | > 4 mM (inactive)
5 | Cc1nc2[nH]onc2c2nccc(=O)c12 | > 4 mM (inactive)
6 | Cn1c(=O)[nH]c(=O)c2c1ncn2CCN1CCCCC1 | > 4 mM (inactive)
7 | CC12CNCC(C)(CNC1)C2O (centres undefined) | > 4 mM (inactive)
8 | O=C(O)/C=C1\NC(=O)c2ccccc21 | > 4 mM (inactive)
9 | Nc1ncnc(NCCO)c1[N+](=O)[O-] | > 4 mM (inactive)
10 | CC(=O)N=c1cccc(NC(C)=O)n1O | > 4 mM (inactive)
11 | C=CCNC(=O)c1ccc(Cl)cc1Cl | > 4 mM (inactive)
12 | CC(C)(C)CC(=O)NC1=NCCS1 | > 4 mM (inactive)
13 | Nc1cccnc1Oc1ccc(F)cc1F | > 4 mM (inactive)
14 | Nc1nc(SCc2ccc3c(c2)OCCO3)n[nH]1 | > 4 mM (inactive)
15 | CC(=O)CNc1cc(CNC(C)=O)c(C)cc1C | > 4 mM (inactive)
16 | CC(C)CCCC(C)[C@H]1CCC2C3CC[C@@H]4C[C@H](O)CC[C@]4(C)C3CC[C@@]21C (some centres undefined) | > 4 mM (inactive)
17 | Oc1ccccc1-c1nnco1 | > 4 mM (inactive)
18 | CC(C)CCCC(C)C1CCC2C3CC(=O)[C@H]4C[C@@H](O)CC[C@]4(C)C3CC[C@]12C (some centres undefined) | > 4 mM (inactive)
19 | O=C(O)c1cn(-c2ccccc2)nc1-c1ccncc1 | > 4 mM (inactive)
20 | Cc1cc(O)cc(=O)n1CCCC(=O)O | > 4 mM (inactive)
21 | O=C(c1ccco1)N1CCCN(C(=O)c2ccco2)CC1 | > 4 mM (inactive)
22 | CN(C)C(=O)c1ccccc1-c1ccccc1 | > 4 mM (inactive)
23 | Clc1ccccc1-c1nc(-c2cccnc2)no1 | > 4 mM (inactive)

Row | Compound | Kd
24 | Cn1cnc2nc3n(c2c1=O)CCC3 | > 4 mM (inactive)
25 | CCC(C)C(=O)O[C@H]1[C@H](O)C2C(CN3CC(C)CCC3[C@@]2(C)O)C2C[C@]34O[C@]5(O)C(OC(=O)C(C)(O)CC)CC[C@@]3(C)C5C(OC(C)=O)[C@@H](OC(C)=O)C4[C@@]21O (some centres undefined) | > 4 mM (inactive)
26 | CCN1CCC2(CC1)CC1CC3C=CC1(CN2C(C)=O)O3 (centres undefined) | > 4 mM (inactive)
27 | CC1(C)CC[C@]2(C(=O)O)CC[C@]3(C)C(=CCC4[C@@]5(C)CC[C@H](O)[C@@](C)(CO)C5CC[C@]43C)C2C1 (some centres undefined) | > 4 mM (inactive)
28 | Nc1ncnc2c1ncn2[C@@H]1O[C@H](CO)[C@@H](O)[C@H]1O | > 4 mM (inactive)
29 | CC1(C)NC(=O)N(CN2CCOCC2)C1=O | > 4 mM (inactive)
30 | OCc1ncoc1-c1ccccc1 | > 4 mM (inactive)
31 | CC(=O)Nc1ccc(NC(=O)/C=C\C(=O)O)cc1 | > 4 mM (inactive)
32 | CC(C)=CCCC1(C)C=Cc2c(O)c3c(c(CC=C(C)C)c2O1)OC12C(=CC4CC1C(C)(C)OC2(C/C=C(/C)C(=O)O)C4=O)C3=O (centres undefined) | > 4 mM (inactive)
33 | O=C(O)Cn1cc(C(=O)c2cccs2)c2ccccc21 | > 4 mM (inactive)
34 | COc1ccc(NC(=O)/C=N/O)cc1 | > 4 mM (inactive)
35 | CC(C)CCCC1(C)C=Cc2c(O)c3c(c(CCC(C)C)c2O1)OC12C(CC4CC1C(C)(C)OC2(CCC(C)C(=O)O)C4O)C3=O (centres undefined) | > 4 mM (inactive)
36 | COc1ccc2c(c1)[n+](=O)c(C(C)=O)c(C)n2[O-] | > 4 mM (inactive)
37 | Cc1nc(-c2ccc(NS(C)(=O)=O)cc2)cs1 | > 4 mM (inactive)
38 | CN1CN/C(=N\[N+](=O)[O-])N(c2ccccc2)C1 | > 4 mM (inactive)
39 | COc1cc(C(=O)O[C@H]2CC[C@@]3(C)[C@@H]4CC[C@H]5[C@]6(O)C[C@H](O)[C@@]7(O)[C@@H](CN8C[C@@H](C)CC[C@H]8[C@@]7(C)O)[C@]6(O)C[C@@]53OC24O)cc(OC)c1OC | > 4 mM (inactive)
40 | CC(C)=CC(=O)Nc1ccccc1C(N)=O | > 4 mM (inactive)
41 | Nc1ccc(O)cn1 | > 4 mM (inactive)
42 | CCOC(=O)c1cc2ccccc2oc1=O | > 4 mM (inactive)
43 | CC(=O)O[C@@H]1c2c(ccc3ccc(=O)oc23)OC(C)(C)[C@@H]1OC(=O)CC(C)C | > 4 mM (inactive)
44 | CCC(C)OC1CCS(=O)(=O)C1 (centres undefined) | > 4 mM (inactive)
45 | COC(=O)c1ccc(N2CCCC2)nc1 | > 4 mM (inactive)
46 | N=c1c2c3c(sc2ncn1N)CCCC3 | > 4 mM (inactive)

Row | Compound | Kd
47 | Cc1cc(=O)n(C(N)=S)[nH]1 | > 4 mM (inactive)
48 | O=C(c1ncc[nH]1)c1ccccc1C(=O)N1CCOCC1 | > 4 mM (inactive)
49 | O=C(O)c1snnc1-c1ccccc1 | > 4 mM (inactive)
50 | CC(=O)O[C@@H]1CC2C(C)(C)C(=O)[C@@H]3O[C@@H]3[C@]2(C)C2CC[C@]3(C)C(=CC(=O)O[C@H]3c3ccoc3)[C@@]21C (some centres undefined) | > 4 mM (inactive)
51 | NC(=O)c1ccc(NC(=O)c2ccco2)cc1 | > 4 mM (inactive)
52 | Nc1c(F)c(F)nc(F)c1F | > 4 mM (inactive)
53 | O=C1CSC(=O)N1CNc1ccccc1 | > 4 mM (inactive)
54 | COc1ccc2[nH]cc(CCNC(C)=O)c2c1 | > 4 mM (inactive)
55 | COC(=O)C1Cc2ccccc2N1 (centres undefined) | > 4 mM (inactive)
56 | COc1cc2nc(N3CCNCC3)nc(N)c2cc1OC | > 4 mM (inactive)
57 | Cc1cc(=O)[nH]c(N2CCN(Cc3ccccc3)CC2)n1 | > 4 mM (inactive)
58 | CC(=O)O[C@H]1C[C@@]2(C)[C@@H](C[C@@H](O)C3[C@]2(C)CC[C@H]2[C@H](C)[C@H](O)CC[C@]32C)/C1=C(/CCC=C(C)C)C(=O)O (some centres undefined) | > 4 mM (inactive)
59 | COc1ccccc1-c1c(C)nn2c(C)c(C(C)=O)cnc12 | > 4 mM (inactive)
60 | COc1cccc(O)c1O | > 4 mM (inactive)
61 | COc1ccc2c(c1OC)C(=O)OC2[C@H]1c2c(cc3c(c2OC)OCO3)CCN1C (some centres undefined) | > 4 mM (inactive)
62 | O=C(O)c1cccc(N2C(=O)C3CC=CCC3C2=O)c1 (centres undefined) | > 4 mM (inactive)
63 | NC(=O)c1ccc(N2C(=O)C=CC2=O)cc1Cl | > 4 mM (inactive)
64 | CC(=O)Nc1ccc(NC(=O)c2ccncc2)cc1 | > 4 mM (inactive)
65 | Cc1ccc2cc(C(=O)O)ccc2n1 | > 4 mM (inactive)
66 | O=C(O)c1ccc(-c2ccccn2)s1 | > 4 mM (inactive)
67 | CCSc1nc(C)c(CC)c(C)c1C(N)=O | > 4 mM (inactive)
68 | CC1(C)C[C@@H]2C(=O)CC[C@H]3O[C@]3(C)CC[C@H]21 | > 4 mM (inactive)
69 | c1ccc2c(NC3=NCCS3)cccc2c1 | > 4 mM (inactive)

Row | Compound | Kd
70 | COc1ccc2c(c1)CCCN2C(N)=O | > 4 mM (inactive)
71 | COc1ccc(C)cc1S(=O)(=O)Nc1ccccc1C | > 4 mM (inactive)
72 | COc1ccc(C(=O)O)cc1OC | > 4 mM (inactive)
73 | O=C1N/C(=N\c2ccccn2)SC1Cc1ccccc1 (centres undefined) | > 4 mM (inactive)
74 | Cc1cc(NC(=O)Cc2cccs2)no1 | > 4 mM (inactive)
75 | Cn1c(=O)c2[nH]cnc2n(-c2ccccc2)c1=O | > 4 mM (inactive)
76 | CCCCCc1c2c(cc(O)c1C(=O)O)OC(=O)c1c(cc(OC)cc1C(=O)CCCC)O2 | > 4 mM (inactive)
77 | Cn1c(NCC(=O)O)nc2c1c(=O)[nH]c(=O)n2C | > 4 mM (inactive)
78 | Cc1cc(C(=O)NN2CCOCC2)c(C)o1 | > 4 mM (inactive)
79 | COc1ccc(C(=O)NNC(=S)NC(C)=O)cc1 | > 4 mM (inactive)
80 | NC(=O)CNC(=O)c1ccc2ccccc2n1 | > 4 mM (inactive)
81 | CC1=C(/C=C/C(C)=C/C=C/C(C)=C/CO)C(C)(C)CCC1 | > 4 mM (inactive)
82 | CN1CCC(N2CCCC(C(N)=O)C2)CC1 (centres undefined) | > 4 mM (inactive)
83 | Cc1csc2nc3ccccc3c(=O)n12 | > 4 mM (inactive)
84 | O=C(Cc1cccs1)Nc1ccon1 | > 4 mM (inactive)
85 | COc1ccc(-c2nnc(-c3ccc(N)cc3)o2)cc1 | > 4 mM (inactive)
86 | O=C(O)c1ccnc2ccccc12 | > 4 mM (inactive)
87 | CSc1ccccc1C(=O)N1CCOCC1 | > 4 mM (inactive)
88 | NCc1n[nH]c(=O)c2ccccc12 | > 4 mM (inactive)
89 | Clc1ccc(-c2noc(CN3CCCC3)n2)cc1 | > 4 mM (inactive)
90 | OCCCc1nc2ccccc2[nH]1 | > 4 mM (inactive)
91 | Cc1cc(NC(=O)c2ccccc2C(=O)O)no1 | > 4 mM (inactive)
92 | CC1(C)O[C@H]2CC(=O)OC[C@]23[C@H]2CC[C@@]4(C)[C@H](c5ccoc5)OC(=O)[C@H]5O[C@]54[C@]2(C)C(=O)C[C@@H]13 | > 4 mM (inactive)

Row | Compound | Kd
93 | O=C(O)C1CSC(c2ccccc2)N1 (centres undefined) | > 4 mM (inactive)
94 | Fc1ccc2onc(C3CCNCC3)c2c1 | > 4 mM (inactive)
95 | O=C1CCC(c2cccs2)=NN1 | > 4 mM (inactive)
96 | CCOC(=O)N1CCCC1c1cccnc1 (centres undefined) | > 4 mM (inactive)
97 | CC(C)CC(=O)NC1CCSC1=O (centres undefined) | > 4 mM (inactive)
98 | CC(=O)NC12CC3CC(C)(C1)CC(NC(C)=O)(C3)C2 | > 4 mM (inactive)
99 | CCNS(=O)(=O)c1cc(Br)ccc1OC | > 4 mM (inactive)
100 | O=S(=O)(CCN1CCCC1)c1ccccc1 | > 4 mM (inactive)
101 | O=C(CC1NCCNC1=O)Nc1ccccc1 (centres undefined) | > 4 mM (inactive)
102 | NC(=O)CSCc1ccc(Br)cc1 | > 4 mM (inactive)
103 | CC(=O)Oc1ccc(-c2nc(-c3cccnc3)no2)cc1 | > 4 mM (inactive)
104 | NC(=O)c1ccc(C(N)=O)c(-c2ccccc2)c1 | > 4 mM (inactive)
105 | C=CCc1ccc(OC(=O)c2ccccc2)c(OC)c1 | > 4 mM (inactive)
106 | O=C(O)C1CSC(c2ccco2)N1 (centres undefined) | > 4 mM (inactive)
107 | CC(=O)NCC1OCCc2ccccc21 (centres undefined) | > 4 mM (inactive)
108 | Cn1nc(C(=O)NCc2cccnc2)c2ccccc2c1=O | > 4 mM (inactive)
109 | Cc1onc(-c2ccc(F)cc2)c1C(=O)O | > 4 mM (inactive)
110 | CC(=O)c1sc2nc(N)nn2c1C | > 4 mM (inactive)
111 | Cc1[nH]c2ccccc2c(=O)c1CO | > 4 mM (inactive)
112 | O=C(C1CCC(C(=O)N2CCCC2)CC1)N1CCCC1 (centres undefined) | > 4 mM (inactive)
113 | O=S1(=O)CCC(NC(=S)N2CCOCC2)C1 (centres undefined) | > 4 mM (inactive)
114 | CN(C)C(=O)CSc1cccc2cccnc12 | > 4 mM (inactive)
